Data as given in article PMC10818749, “Toxicity Studies of Cardiac-Targeting Peptide Reveal a Robust Safety Profile” (Pharmaceutics, 2024).

Tests used:
[1] = system: leukemia and peripheral blood monocyte cell line; parameters: method as in PMID 16137634; details: 5 and 10 µM; ref [51]; cited from earlier work
[2] = system: cancer cell lines; details: ref Saar and colleagues; cited from earlier work
[3] = target: HEK-Kv4.3/KChIP2 (Homo sapiens, UniProt Q9NS61+Q9UK17); test: cell-based
[4] = target: CHO-KCNQ1/minK (Homo sapiens, UniProt P15382+P51787); details: read-out: Estimated IC50 (reference compound); antagonist mode; Qube APC (1 conc.)
[5] = target: T1, HEK-Kir2.1 (Homo sapiens, UniProt P63252); assay type: cell-based; details: read-out: Estimated IC50 (reference compound)
T1 construct: host or cells: HEK
T1 sequence (P63252 whole entry): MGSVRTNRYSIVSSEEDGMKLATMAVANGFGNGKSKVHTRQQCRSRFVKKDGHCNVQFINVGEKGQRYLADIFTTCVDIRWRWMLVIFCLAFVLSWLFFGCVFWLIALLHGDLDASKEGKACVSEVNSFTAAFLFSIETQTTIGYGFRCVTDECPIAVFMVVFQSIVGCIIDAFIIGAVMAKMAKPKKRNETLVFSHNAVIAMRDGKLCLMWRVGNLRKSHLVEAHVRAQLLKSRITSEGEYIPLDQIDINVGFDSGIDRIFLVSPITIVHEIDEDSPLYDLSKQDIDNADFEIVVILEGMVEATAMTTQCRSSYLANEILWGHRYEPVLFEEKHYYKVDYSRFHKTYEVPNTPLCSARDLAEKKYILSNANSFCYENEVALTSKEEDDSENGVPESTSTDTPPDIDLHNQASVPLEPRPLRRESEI

[6] = target: T2, HEK-Nav1.5 (Late, Antagonist) (Homo sapiens, UniProt Q14524); assay type: cell-based; details: antagonist mode; Qube APC (1 conc.); late current, 50nM ATXII; read-out: Estimated IC50 (reference compound)
T2 construct: CYL7004QB2DR (late); host or cells: HEK
T2 sequence (Q14524 whole entry): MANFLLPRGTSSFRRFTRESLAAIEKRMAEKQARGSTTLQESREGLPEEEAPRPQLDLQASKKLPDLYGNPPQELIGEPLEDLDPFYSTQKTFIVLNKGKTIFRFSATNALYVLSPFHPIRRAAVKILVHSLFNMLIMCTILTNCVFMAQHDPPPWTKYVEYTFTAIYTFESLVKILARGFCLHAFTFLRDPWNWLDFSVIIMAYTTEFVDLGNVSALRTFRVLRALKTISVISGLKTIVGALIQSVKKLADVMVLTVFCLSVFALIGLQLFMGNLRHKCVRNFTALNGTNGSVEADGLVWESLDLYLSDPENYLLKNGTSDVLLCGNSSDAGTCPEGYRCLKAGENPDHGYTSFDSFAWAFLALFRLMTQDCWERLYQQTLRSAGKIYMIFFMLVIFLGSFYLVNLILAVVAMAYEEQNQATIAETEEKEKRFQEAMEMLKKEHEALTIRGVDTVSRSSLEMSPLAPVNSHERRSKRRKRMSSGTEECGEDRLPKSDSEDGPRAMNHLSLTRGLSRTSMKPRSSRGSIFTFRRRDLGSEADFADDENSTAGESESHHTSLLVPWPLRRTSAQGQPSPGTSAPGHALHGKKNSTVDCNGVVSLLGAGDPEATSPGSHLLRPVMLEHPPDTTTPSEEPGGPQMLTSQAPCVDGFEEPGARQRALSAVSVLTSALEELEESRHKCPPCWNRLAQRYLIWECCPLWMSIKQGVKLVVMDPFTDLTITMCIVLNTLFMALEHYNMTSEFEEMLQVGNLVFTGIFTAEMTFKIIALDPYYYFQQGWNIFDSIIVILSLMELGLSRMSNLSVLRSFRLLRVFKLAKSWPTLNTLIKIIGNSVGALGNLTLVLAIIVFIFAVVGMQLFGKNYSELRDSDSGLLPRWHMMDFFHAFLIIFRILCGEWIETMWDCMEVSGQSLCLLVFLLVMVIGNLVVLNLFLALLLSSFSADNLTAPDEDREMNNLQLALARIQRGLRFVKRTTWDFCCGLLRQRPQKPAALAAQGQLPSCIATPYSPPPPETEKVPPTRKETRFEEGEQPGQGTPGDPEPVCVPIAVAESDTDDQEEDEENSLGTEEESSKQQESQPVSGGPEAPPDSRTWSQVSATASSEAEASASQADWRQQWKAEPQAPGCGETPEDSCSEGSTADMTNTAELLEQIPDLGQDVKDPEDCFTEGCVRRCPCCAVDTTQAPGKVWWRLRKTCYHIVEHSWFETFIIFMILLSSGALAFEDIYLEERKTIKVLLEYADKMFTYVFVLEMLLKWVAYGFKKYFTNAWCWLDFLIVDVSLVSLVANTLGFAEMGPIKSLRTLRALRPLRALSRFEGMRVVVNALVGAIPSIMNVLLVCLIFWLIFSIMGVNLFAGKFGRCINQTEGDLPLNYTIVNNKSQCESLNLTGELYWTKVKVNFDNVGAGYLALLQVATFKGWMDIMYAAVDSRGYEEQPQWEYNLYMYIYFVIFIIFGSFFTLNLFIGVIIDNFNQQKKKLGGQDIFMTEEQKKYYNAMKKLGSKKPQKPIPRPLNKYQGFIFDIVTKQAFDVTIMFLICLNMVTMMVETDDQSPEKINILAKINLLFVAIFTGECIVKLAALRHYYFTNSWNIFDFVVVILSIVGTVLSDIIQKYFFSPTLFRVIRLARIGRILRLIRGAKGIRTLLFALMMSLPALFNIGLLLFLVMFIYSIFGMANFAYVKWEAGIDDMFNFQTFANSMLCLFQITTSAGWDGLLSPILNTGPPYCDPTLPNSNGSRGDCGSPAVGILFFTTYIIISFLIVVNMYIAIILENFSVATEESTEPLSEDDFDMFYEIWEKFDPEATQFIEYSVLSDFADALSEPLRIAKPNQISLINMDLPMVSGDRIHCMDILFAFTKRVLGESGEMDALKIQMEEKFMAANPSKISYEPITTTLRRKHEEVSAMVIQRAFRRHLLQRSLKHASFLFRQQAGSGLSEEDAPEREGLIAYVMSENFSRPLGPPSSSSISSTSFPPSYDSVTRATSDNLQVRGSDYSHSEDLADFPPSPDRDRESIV

Sequence of HEK-Kv4.3/KChIP2 (Q9UK17 whole entry): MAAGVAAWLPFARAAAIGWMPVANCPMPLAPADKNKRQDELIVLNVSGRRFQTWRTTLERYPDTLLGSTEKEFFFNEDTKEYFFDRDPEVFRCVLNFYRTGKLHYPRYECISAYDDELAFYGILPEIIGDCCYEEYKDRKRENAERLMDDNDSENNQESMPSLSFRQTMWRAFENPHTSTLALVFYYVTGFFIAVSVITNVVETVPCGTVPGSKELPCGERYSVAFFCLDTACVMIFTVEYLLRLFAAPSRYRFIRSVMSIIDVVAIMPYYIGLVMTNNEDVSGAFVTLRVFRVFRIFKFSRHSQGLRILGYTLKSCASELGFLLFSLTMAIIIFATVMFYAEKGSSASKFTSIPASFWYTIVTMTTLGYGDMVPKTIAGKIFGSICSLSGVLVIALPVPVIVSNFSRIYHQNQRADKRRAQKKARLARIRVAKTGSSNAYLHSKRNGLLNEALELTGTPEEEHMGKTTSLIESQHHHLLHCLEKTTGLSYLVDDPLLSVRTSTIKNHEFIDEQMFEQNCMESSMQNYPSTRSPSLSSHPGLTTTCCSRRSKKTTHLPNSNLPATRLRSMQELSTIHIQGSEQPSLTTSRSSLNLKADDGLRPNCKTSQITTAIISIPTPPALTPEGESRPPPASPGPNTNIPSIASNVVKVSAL
Sequence of HEK-Kv4.3/KChIP2 (Q9NS61 whole entry partner): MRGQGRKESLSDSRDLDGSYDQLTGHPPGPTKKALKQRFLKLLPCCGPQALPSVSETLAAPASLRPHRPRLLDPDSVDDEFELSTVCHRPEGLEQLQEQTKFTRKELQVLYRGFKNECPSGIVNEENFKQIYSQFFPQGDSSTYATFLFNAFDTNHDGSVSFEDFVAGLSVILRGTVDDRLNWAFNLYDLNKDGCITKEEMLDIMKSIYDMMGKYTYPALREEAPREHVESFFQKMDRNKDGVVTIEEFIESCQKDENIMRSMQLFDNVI

Compound: transportan 10
- cytokine release [1]: no increase in cytokine levels
- membrane leakage of lactate dehydrogenase [2]: significant leakage

Compound: O=C(NCC1CCCCN1)c1cc(OCC(F)(F)F)ccc1OCC(F)(F)F (stereo not shown) [Flecainide]
- IC50 [3]: 12.5 µM

Compound: CCS(=O)(=O)N(C)[C@H]1c2cc(C#N)ccc2OC(C)(C)[C@@H]1O (racemic) [Chromanol 293B, reference compound]
- IC50 [4]: 21.5 µM

Compound: pVEC: well-characterized, non-cell-specific CPP (TLLIILRRRIRKQAHAHS; UniProt P55284 615-632, looked up, fragment)
- membrane leakage of lactate dehydrogenase [2]: minimal membrane leakage of lactate dehydrogenase

Compound: [Ba+2].[Cl-].[Cl-] [Barium Chloride, reference compound]
- IC50 [5]: 17.7 µM

Compound: COc1ccccc1OCC(O)CN1CCN(CC(=O)Nc2c(C)cccc2C)CC1 (stereo not shown) [Ranolazine, reference compound]
- IC50 [6]: 72.5 µM
